Test results from patent US20190315823A1, “SMALL CATIONIC ANTI-BIOFILM AND IDR PEPTIDES” (priority 2013, published 2019).
Ends that are not written are not given here.

Columns and labels:
[1] = tested on: human peripheral blood mononuclear cells (MCP-1); experiment: SPOT-synthesized derivative screen: production of chemokine MCP-1; type: cell-based; details: Table 12, No LPS, human PBMC, peptide at ~18-24 μM; for MCP1: background subtracted 139 (HH2 derivatives), 170 (1018 derivatives), 242 (1002 and hybrid peptides) pg/ml
Description: Venous blood (20 ml) from healthy volunteers was collected in Vacutainer® collection tubes containing sodium heparin as an anticoagulant (Becton Dickinson, Mississauga, ON) in accordance with UBC ethical approval and guidelines. Blood was diluted 1:1 with complete RPMI 1640 medium and separated by centrifugation over a Ficoll-Paque® Plus (Amersham Biosciences, Piscataway, N.J., USA) density gradient. White blood cells were isolated from the buffy coat, washed twice in RPMI 1640 complete medium, and the number of peripheral blood mononuclear cells (PBMC) was determined by Trypan blue exclusion. PBMC (5×10^5) were seeded into 12-well tissue culture dishes (Falcon; Becton Dickinson) at 0.75 to 1×10^6 cells/ml at 37° C. in 5% CO2. The above conditions were chosen to mimic conditions for circulating blood monocytes entering tissues at the site of infection via extravasation.
Following incubation of the cells under various treatment regimens, the tissue culture supernatants were centrifuged at 1000×g for 5 min, then at 10,000×g for 2 min to obtain cell-free samples. Supernatants were aliquoted and then stored at −20° C. prior to assay for various chemokines by capture ELISA (eBioscience and BioSource International Inc., CA, USA respectively)

[2] = tested on: LPS-stimulated human peripheral blood mononuclear cells (IL1-β); type: cell-based; details: Table 12, cells stimulated with 10 ng/ml LPS; for IL1β Production: LPS alone 1313 (HH2 derivatives), 1927 (1018 derivatives), 2455 (1002 and hybrid peptides) pg/ml
Description: LPS from P. aeruginosa strain H103 was highly purified free of proteins and lipids using the Darveau-Hancock method. Briefly, P. aeruginosa was grown overnight in LB broth at 37° C. Cells were collected and washed and the isolated LPS pellets were extracted with a 2:1 chloroform:methanol solution to remove contaminating lipids. Purified LPS samples were quantitated using an assay for the specific sugar 2-keto-3-deoxyoctosonic acid (KDO assay) and then resuspended in endotoxin-free water (Sigma-Aldrich).

[3] = tested on: methicillin resistant Staphylococcus aureus (MRSA) biofilm; details: approximate peptide concentration […] (around 3 μg/ml); compared to untreated samples
Description: Methods of assessment of anti-biofilm activity—Biofilm formation was initially analyzed using a static abiotic solid surface assay as described elsewhere (de la Fuente-Nunez et al., 2012). Dilutions (1/100) of overnight cultures were incubated in BM2 biofilm-adjusted medium [62 mM potassium phosphate buffer (pH 7), 7 mM (NH4)2SO4, 2 mM MgSO4, 10 μM FeSO4, 0.4% (wt/vol) glucose, 0.5% (wt/vol) Casamino Acids], or a nutrient medium such as Luria Broth, in polypropylene microtiter plates (Falcon, United States) in the absence (control) or presence of peptide. Peptide was added at time zero (prior to adding the diluted, overnight cultures) in varying concentrations, and the decrease in biofilm formation was recorded at 22-46 h for most bacteria. Planktonic cells were removed, biofilm cells adhering to the side of the tubes were stained with crystal violet, and absorbance at 595 nm was measured using a microtiter plate reader (Bio-Tek Instruments Inc., United States). Some peptides were screened against two Gram negative organisms, P. aeruginosa and K. pneumoniae using a Bioflux apparatus (AutoMate Scientific, Berkeley, Calif.; http://www.autom8.com/bioflux_biofilm.html), which allows for the high-throughput, real-time analysis of biofilms.

For “HH2-K3: single substituted HH2 peptide (VQKRIRVAVIRA-NH2)”, the “Fold increase in MCP1 cf. untreated cells” value (shortened to “Fold increase”) [1] was 11, the “MCP1” value [1] was 1763 pg/mL and the “Fold change in IL1β relative to no peptide LPS stimulated cells” value [2] was 1.34. The “IL1β Production” value [2] was 1761 pg/mL and the “% Biofilm inhibition” value [3] was 14%.
“1002-R8: single substituted 1002 peptide (VQRWLIVRRIRK-NH2) [Peptide 1002-R8]” was tested, and the “Fold increase” value [1] was 1.0, the “MCP1” value [1] was -11.7 pg/mL and the “Fold change in IL1β relative to no peptide LPS stimulated cells” value [2] was 0.36. For the same substance, the “IL1β Production” value [2] was 892 pg/mL and the “% Biofilm inhibition” value [3] was 23%.
For “HH2-Q7: single substituted HH2 peptide (VQLRIRQAVIRA-NH2)”, the “Fold increase” value [1] was 3.9, the “MCP1” value [1] was 488 pg/mL and the “Fold change in IL1β relative to no peptide LPS stimulated cells” value [2] was 1.00. The “IL1β Production” value [2] was 1316 pg/mL and the “% Biofilm inhibition” value [3] was 21%.
With “1002-W3: single substituted 1002 peptide (VQWWLIVWRIRK-NH2) [Peptide 1002-W3]” the “Fold increase” value [1] was 1.4, the “MCP1” value [1] was 90.4 pg/mL and the “Fold change in IL1β relative to no peptide LPS stimulated cells” value [2] was 0.05. For the same substance, the “IL1β Production” value [2] was 127 pg/mL and the “% Biofilm inhibition” value [3] was 68%.
With “1002-G3: single substituted 1002 peptide (VQGWLIVWRIRK-NH2) [Peptide 1002-G3]” the “Fold increase” value [1] was 14.0, the “MCP1” value [1] was 3157.8 pg/mL and the “Fold change in IL1β relative to no peptide LPS stimulated cells” value [2] was 0.05. For the same substance, the “IL1β Production” value [2] was 127 pg/mL and the “% Biofilm inhibition” value [3] was 56%.
With “HH2-I12: single substituted HH2 peptide (VQLRIRVAVIRI-NH2)” the “Fold increase” value [1] was 18, the “MCP1” value [1] was 2845 pg/mL and the “Fold change in IL1β relative to no peptide LPS stimulated cells” value [2] was 0.51. The “IL1β Production” value [2] was 667 pg/mL and the “% Biofilm inhibition” value [3] was 65%.
For “1002-I7: single substituted 1002 peptide (VQRWLIIWRIRK-NH2) [Peptide 1002-I7]”, the “Fold increase” value [1] was 3.3, the “MCP1” value [1] was 557.5 pg/mL and the “Fold change in IL1β relative to no peptide LPS stimulated cells” value [2] was 0.05. For the same substance, the “IL1β Production” value [2] was 127 pg/mL and the “% Biofilm inhibition” value [3] was 73%.
With “HH2-W3: single substituted HH2 peptide (VQWRIRVAVIRA-NH2)” the “Fold increase” value [1] was 21, the “MCP1” value [1] was 3418 pg/mL and the “Fold change in IL1β relative to no peptide LPS stimulated cells” value [2] was 0.67. The “IL1β Production” value [2] was 874 pg/mL and the “% Biofilm inhibition” value [3] was 62%.
“1018-L9: single substituted 1018 peptide (VRLIVAVRLWRR-NH2) [Peptide 1018-L9]” was tested, and the “Fold increase” value [1] was 1.4, the “MCP1” value [1] was 66 pg/mL and the “Fold change in IL1β relative to no peptide LPS stimulated cells” value [2] was 0.13. For the same substance, the “IL1β Production” value [2] was 171 pg/mL and the “% Biofilm inhibition” value [3] was 52%.
“1018-V10: single substituted 1018 peptide (VRLIVAVRIVRR-NH2) [Peptide 1018-V10]” was tested, and the “Fold increase” value [1] was 1.2, the “MCP1” value [1] was 29 pg/mL and the “Fold change in IL1β relative to no peptide LPS stimulated cells” value [2] was 0.28. The “IL1β Production” value [2] was 370 pg/mL and the “% Biofilm inhibition” value [3] was 50%.
In the case of “1002-A8: single substituted 1002 peptide (VQRWLIVARIRK-NH2) [Peptide 1002-A8]”, the “Fold increase” value [1] is reported as 0.9, the “MCP1” value [1] is reported as -36.2 pg/mL and the “Fold change in IL1β relative to no peptide LPS stimulated cells” value [2] is reported as 0.09. For the same substance, the “IL1β Production” value [2] was 219 pg/mL and the “% Biofilm inhibition” value [3] was 52%.
In the case of “1018-L1: single substituted 1018 peptide (LRLIVAVRIWRR-NH2) [Peptide 1018-L1]”, the “Fold increase” value [1] is reported as 4.1, the “MCP1” value [1] is reported as 531 pg/mL and the “Fold change in IL1β relative to no peptide LPS stimulated cells” value [2] is reported as 0.21. The “IL1β Production” value [2] was 282 pg/mL and the “% Biofilm inhibition” value [3] was 72%.
For “1002-W10: single substituted 1002 peptide (VQRWLIVWRWRK-NH2) [Peptide 1002-W10]”, the “Fold increase” value [1] was 8.8, the “MCP1” value [1] was 1889.1 pg/mL and the “Fold change in IL1β relative to no peptide LPS stimulated cells” value [2] was 0.05. The “IL1β Production” value [2] was 127 pg/mL and the “% Biofilm inhibition” value [3] was 71%.
In the case of “1018-A7: single substituted 1018 peptide (VRLIVAARIWRR-NH2) [Peptide 1018-A7]”, the “Fold increase” value [1] is reported as 0.5, the “MCP1” value [1] is reported as -88 pg/mL and the “Fold change in IL1β relative to no peptide LPS stimulated cells” value [2] is reported as 0.68. The “IL1β Production” value [2] was 891 pg/mL and the “% Biofilm inhibition” value [3] was 52%.
In the case of “HH2-G4: single substituted HH2 peptide (VQLGIRVAVIRA-NH2)”, the “Fold increase” value [1] is reported as 148, the “MCP1” value [1] is reported as 25045 pg/mL and the “Fold change in IL1β relative to no peptide LPS stimulated cells” value [2] is reported as 1.21. The “IL1β Production” value [2] was 1582 pg/mL and the “% Biofilm inhibition” value [3] was 40%.
“HH2-V5: single substituted HH2 peptide (VQLRVRVAVIRA-NH2)” was tested, and the “Fold increase” value [1] was 9.3, the “MCP1” value [1] was 1409 pg/mL and the “Fold change in IL1β relative to no peptide LPS stimulated cells” value [2] was 1.29. For the same substance, the “IL1β Production” value [2] was 1696 pg/mL and the “% Biofilm inhibition” value [3] was 50%.
For “1018-A9: single substituted 1018 peptide (VRLIVAVRAWRR-NH2) [Peptide 1018-A9]”, the “Fold increase” value [1] was 0.5, the “MCP1” value [1] was -88 pg/mL and the “Fold change in IL1β relative to no peptide LPS stimulated cells” value [2] was 0.90. For the same substance, the “IL1β Production” value [2] was 1176 pg/mL and the “% Biofilm inhibition” value [3] was 49%.
With “HH2-V3: single substituted HH2 peptide (VQVRIRVAVIRA-NH2)” the “Fold increase” value [1] was 211, the “MCP1” value [1] was 35750 pg/mL and the “Fold change in IL1β relative to no peptide LPS stimulated cells” value [2] was 1.27. For the same substance, the “IL1β Production” value [2] was 1665 pg/mL and the “% Biofilm inhibition” value [3] was 57%.
“HH2-R1: single substituted HH2 peptide (RQLRIRVAVIRA-NH2)” was tested, and the “Fold increase” value [1] was 25, the “MCP1” value [1] was 4034 pg/mL and the “Fold change in IL1β relative to no peptide LPS stimulated cells” value [2] was 1.50. The “IL1β Production” value [2] was 1965 pg/mL and the “% Biofilm inhibition” value [3] was 53%.
With “1002-Q6: single substituted 1002 peptide (VQRWLQVWRIRK-NH2) [Peptide 1002-Q6]” the “Fold increase” value [1] was 0.9, the “MCP1” value [1] was -36.2 pg/mL and the “Fold change in IL1β relative to no peptide LPS stimulated cells” value [2] was 0.35. For the same substance, the “IL1β Production” value [2] was 859 pg/mL and the “% Biofilm inhibition” value [3] was 22%.
“1018-Q9: single substituted 1018 peptide (VRLIVAVRQWRR-NH2) [Peptide 1018-Q9]” was tested, and the “Fold increase” value [1] was 0.8, the “MCP1” value [1] was -28 pg/mL and the “Fold change in IL1β relative to no peptide LPS stimulated cells” value [2] was 1.00. The “IL1β Production” value [2] was 1313 pg/mL and the “% Biofilm inhibition” value [3] was 38%.
For “HH2-G2: single substituted HH2 peptide (VGLRIRVAVIRA-NH2)”, the “Fold increase” value [1] was 3.8, the “MCP1” value [1] was 471 pg/mL and the “Fold change in IL1β relative to no peptide LPS stimulated cells” value [2] was 1.07. The “IL1β Production” value [2] was 1400 pg/mL and the “% Biofilm inhibition” value [3] was 66%.
In the case of “1002-L12: single substituted 1002 peptide (VQRWLIVWRIRL-NH2) [Peptide 1002-L12]”, the “Fold increase” value [1] is reported as 4.7, the “MCP1” value [1] is reported as 905.7 pg/mL and the “Fold change in IL1β relative to no peptide LPS stimulated cells” value [2] is reported as 0.05. For the same substance, the “IL1β Production” value [2] was 127 pg/mL and the “% Biofilm inhibition” value [3] was 64%.
“HH2-G7: single substituted HH2 peptide (VQLRIRGAVIRA-NH2)” was tested, and the “Fold increase” value [1] was 1.5, the “MCP1” value [1] was 78 pg/mL and the “Fold change in IL1β relative to no peptide LPS stimulated cells” value [2] was 1.02. For the same substance, the “IL1β Production” value [2] was 1344 pg/mL and the “% Biofilm inhibition” value [3] was 33%.
